According to ChEMBL document CHEMBL1909046, “DrugMatrix in vitro pharmacology data”:

Experiments:
[1] = target: T1, Amine oxidase [flavin-containing] A (Homo sapiens, UniProt P21397); experiment: DRUGMATRIX: Monoamine Oxidase MAO-A enzyme inhibition (substrate: Kynuramine); parameters: species or system BTI-TN-5B1-4; conditions: bti-tn-5b1-4; Not Active = under 50% inhibition at 10 µM
T1 sequence (P21397 whole entry): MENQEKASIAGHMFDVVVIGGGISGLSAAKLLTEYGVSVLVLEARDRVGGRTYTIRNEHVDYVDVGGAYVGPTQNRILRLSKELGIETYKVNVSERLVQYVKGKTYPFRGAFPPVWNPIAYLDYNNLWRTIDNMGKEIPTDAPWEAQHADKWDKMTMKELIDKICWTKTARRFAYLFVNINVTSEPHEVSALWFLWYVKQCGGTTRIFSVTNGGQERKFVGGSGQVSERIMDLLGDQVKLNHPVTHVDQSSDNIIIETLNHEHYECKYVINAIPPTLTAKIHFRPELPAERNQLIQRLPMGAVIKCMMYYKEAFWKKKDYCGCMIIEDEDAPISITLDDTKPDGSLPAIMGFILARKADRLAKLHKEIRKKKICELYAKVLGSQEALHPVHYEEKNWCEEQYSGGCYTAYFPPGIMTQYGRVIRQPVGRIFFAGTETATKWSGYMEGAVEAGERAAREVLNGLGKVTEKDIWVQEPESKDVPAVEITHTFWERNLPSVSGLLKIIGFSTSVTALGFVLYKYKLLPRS

[2] = DRUGMATRIX: Serotonin (5-Hydroxytryptamine) 5-HT3 radioligand binding (ligand: [3H] GR-65630); type: cell membranes, Membrane; conditions: hek293; Not Active = under 50% inhibition at 10 µM
[3] = DRUGMATRIX: Phorbol Ester radioligand binding (ligand: [3H] PDBu); type: cell membranes, Mus musculus, ICR, Brain, Membrane; conditions: Not Active = under 50% inhibition at 10 µM
B2 bradykinin receptor = target: T2, B2 bradykinin receptor (Homo sapiens, UniProt P30411); type: cell membranes, Membrane; conditions: chem-1; also: in other assays of this panel Not Active means under 50% inhibition at 10 µM
T2 sequence (P30411 whole entry): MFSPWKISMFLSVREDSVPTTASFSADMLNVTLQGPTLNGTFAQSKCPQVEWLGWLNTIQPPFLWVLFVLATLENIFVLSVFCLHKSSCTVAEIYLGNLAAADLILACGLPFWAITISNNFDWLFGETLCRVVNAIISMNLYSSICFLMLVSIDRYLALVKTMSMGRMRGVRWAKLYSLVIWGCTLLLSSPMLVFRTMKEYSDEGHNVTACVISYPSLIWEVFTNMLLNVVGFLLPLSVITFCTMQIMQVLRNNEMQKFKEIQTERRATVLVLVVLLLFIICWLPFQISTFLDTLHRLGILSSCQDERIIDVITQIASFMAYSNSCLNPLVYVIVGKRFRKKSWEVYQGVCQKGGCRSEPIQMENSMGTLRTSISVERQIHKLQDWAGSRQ

[4] = target: Tyrosine-protein kinase Lck (Homo sapiens, UniProt P06239); experiment: DRUGMATRIX: Protein Tyrosine Kinase, LCK enzyme inhibition (substrate: Poly(Glu:Tyr)); type: cell-based, Insect cells; conditions: insect cells; Not Active = under 50% inhibition at 10 µM
[5] = target: T3, Neuropeptide Y receptor type 2 (Homo sapiens, UniProt P49146); type: cell membranes, Membrane; conditions: kan-ts; also: in other assays of this panel Not Active means under 50% inhibition at 10 µM
T3 sequence (P49146 whole entry): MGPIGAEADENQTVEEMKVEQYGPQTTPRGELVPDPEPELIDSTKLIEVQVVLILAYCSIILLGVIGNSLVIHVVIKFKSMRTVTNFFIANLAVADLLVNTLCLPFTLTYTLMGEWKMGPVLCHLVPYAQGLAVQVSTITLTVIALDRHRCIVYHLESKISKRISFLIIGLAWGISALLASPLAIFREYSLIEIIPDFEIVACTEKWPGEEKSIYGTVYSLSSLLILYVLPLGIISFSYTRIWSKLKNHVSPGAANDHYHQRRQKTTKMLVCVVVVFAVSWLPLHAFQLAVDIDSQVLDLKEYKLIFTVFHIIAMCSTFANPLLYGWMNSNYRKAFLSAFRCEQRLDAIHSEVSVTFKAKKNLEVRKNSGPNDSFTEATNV

Cytochrome P450 2C19 = Cytochrome P450 2C19 (Homo sapiens, UniProt P33261); conditions: bti-tn-5b1-4; also: in other assays of this panel Not Active means under 50% inhibition at 10 µM
Caspase-1 = target: T4, Caspase-1 (Homo sapiens, UniProt P29466); parameters: species or system Escherichia coli;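 also: Caspase-1 enzyme inhibition assay with a peptide substrate; in other assays of this panel Not Active means under 50% inhibition at 10 µM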
T4 sequence (P29466 whole entry): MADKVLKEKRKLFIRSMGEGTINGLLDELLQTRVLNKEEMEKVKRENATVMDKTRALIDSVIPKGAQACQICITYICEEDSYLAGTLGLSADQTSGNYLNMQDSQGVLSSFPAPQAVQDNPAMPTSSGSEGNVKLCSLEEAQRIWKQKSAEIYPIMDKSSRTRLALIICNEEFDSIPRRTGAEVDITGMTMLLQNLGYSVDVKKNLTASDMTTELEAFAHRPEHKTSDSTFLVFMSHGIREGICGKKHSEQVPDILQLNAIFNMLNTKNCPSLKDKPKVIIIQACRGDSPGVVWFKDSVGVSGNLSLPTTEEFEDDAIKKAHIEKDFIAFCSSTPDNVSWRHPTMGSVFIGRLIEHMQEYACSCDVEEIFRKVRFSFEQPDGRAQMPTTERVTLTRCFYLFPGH

[6] = target: T5, Alpha-1A adrenergic receptor (Rattus norvegicus, UniProt P43140); experiment: DRUGMATRIX: Alpha-1A adrenergic receptor radioligand binding (ligand: prazosin); type: cell membranes, Wistar, Submaxillary gland, Membrane; conditions: Not Active = under 50% inhibition at 10 µM
T5 sequence (P43140 whole entry): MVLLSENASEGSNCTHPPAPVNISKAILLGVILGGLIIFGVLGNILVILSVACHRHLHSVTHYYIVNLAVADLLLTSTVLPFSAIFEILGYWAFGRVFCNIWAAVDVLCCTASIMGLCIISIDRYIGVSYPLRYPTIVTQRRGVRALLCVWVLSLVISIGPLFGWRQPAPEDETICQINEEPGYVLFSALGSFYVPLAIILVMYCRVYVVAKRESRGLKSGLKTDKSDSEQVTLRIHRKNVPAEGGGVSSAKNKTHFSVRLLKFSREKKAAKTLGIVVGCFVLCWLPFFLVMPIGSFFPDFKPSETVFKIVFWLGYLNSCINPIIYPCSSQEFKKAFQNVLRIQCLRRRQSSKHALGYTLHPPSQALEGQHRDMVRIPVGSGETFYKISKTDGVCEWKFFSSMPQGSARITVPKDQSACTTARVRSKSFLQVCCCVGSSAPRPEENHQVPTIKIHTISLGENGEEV

[7] = target: Mitogen-activated protein kinase 14 (Homo sapiens, UniProt Q16539); parameters: species or system Escherichia coli
[8] = target: Prostaglandin G/H synthase 1 (Homo sapiens, UniProt P23219); experiment: biochemical; type: tissue-based, Platelet; conditions: platelet
[9] = DRUGMATRIX: GABAA, Chloride Channel, TBOB radioligand binding (ligand: [3H] TBOB); type: cell membranes, Rattus norvegicus, Wistar, Cerebral cortex, Membrane; conditions: Not Active = under 50% inhibition at 10 µM
[10] = target: 5-hydroxytryptamine receptor 2B (Homo sapiens, UniProt P41595); type: cell membranes, CHO-K1, Membrane; conditions: cho-k1; also: in other assays of this panel Not Active means under 50% inhibition at 10 µM
Chain of 5-hydroxytryptamine receptor 2B (P41595 whole entry): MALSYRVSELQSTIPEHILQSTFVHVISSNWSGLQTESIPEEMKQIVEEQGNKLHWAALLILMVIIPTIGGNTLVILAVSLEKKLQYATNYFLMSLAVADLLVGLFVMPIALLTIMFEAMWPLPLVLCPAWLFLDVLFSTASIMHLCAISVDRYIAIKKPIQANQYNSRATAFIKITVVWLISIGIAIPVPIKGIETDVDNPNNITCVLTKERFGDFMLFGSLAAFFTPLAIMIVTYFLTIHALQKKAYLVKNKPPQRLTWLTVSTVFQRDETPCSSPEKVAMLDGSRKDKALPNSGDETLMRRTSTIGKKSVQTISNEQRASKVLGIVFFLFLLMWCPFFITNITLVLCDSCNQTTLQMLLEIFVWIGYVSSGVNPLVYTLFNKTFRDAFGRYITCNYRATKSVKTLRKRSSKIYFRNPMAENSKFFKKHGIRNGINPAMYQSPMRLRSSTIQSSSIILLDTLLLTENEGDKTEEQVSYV

Chain of Tyrosine-protein kinase Lck (P06239 whole entry): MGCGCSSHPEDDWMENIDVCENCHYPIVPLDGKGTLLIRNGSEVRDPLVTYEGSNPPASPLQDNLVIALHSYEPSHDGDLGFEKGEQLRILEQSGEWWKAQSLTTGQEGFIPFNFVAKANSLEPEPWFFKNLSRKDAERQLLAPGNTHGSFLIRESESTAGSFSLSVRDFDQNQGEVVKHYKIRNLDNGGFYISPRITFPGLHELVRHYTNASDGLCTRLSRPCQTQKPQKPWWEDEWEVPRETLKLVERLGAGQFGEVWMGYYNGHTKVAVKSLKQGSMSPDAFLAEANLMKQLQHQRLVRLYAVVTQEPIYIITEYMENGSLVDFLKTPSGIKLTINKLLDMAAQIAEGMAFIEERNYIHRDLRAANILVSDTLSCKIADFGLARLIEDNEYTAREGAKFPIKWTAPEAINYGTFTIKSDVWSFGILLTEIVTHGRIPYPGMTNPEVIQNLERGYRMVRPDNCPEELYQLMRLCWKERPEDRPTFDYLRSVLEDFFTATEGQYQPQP
Chain of Mitogen-activated protein kinase 14 (Q16539 whole entry): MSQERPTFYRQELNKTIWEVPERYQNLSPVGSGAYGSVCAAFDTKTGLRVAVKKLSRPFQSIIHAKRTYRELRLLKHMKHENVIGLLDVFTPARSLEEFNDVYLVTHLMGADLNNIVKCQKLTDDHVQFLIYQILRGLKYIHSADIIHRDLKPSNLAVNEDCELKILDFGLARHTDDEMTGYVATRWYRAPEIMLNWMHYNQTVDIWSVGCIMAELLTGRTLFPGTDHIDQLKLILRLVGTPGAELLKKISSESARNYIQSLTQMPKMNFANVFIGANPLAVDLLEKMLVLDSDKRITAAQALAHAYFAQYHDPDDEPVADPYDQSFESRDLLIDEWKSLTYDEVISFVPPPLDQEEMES
Chain of Cytochrome P450 2C19 (P33261 whole entry): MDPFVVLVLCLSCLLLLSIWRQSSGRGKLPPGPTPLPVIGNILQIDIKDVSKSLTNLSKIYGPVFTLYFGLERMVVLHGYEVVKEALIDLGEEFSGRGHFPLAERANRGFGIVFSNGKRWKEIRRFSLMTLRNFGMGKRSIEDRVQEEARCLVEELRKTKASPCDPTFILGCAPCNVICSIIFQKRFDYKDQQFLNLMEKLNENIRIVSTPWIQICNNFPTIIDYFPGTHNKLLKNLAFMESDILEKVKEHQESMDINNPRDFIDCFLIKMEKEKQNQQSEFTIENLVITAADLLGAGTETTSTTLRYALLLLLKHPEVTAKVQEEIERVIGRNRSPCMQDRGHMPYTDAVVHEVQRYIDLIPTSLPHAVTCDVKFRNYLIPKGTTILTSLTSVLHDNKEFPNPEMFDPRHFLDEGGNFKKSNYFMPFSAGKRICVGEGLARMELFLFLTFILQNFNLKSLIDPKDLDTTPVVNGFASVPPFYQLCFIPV
Chain of Prostaglandin G/H synthase 1 (P23219 whole entry): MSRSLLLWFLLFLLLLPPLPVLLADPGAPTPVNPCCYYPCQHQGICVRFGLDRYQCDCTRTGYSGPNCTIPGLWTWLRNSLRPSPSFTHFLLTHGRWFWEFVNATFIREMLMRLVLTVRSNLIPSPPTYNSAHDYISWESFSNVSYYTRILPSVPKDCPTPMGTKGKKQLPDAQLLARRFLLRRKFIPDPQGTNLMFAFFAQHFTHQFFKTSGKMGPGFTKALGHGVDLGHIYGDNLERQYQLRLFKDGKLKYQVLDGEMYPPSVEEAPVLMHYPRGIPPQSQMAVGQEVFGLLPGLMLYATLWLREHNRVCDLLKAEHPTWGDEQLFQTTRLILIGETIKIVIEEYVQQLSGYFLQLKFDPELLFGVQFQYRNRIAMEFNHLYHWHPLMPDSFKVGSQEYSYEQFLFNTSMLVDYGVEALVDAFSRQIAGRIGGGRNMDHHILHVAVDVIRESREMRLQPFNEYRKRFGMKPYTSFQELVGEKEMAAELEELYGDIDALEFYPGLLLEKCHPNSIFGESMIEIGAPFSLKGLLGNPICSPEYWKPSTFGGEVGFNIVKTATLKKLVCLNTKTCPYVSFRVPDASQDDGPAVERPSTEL

NCC[C@H](O)C(=O)N[C@@H]1C[C@H](N)[C@@H](O[C@H]2O[C@H](CN)[C@@H](O)[C@H](O)[C@H]2O)[C@H](O)[C@H]1O[C@H]1O[C@H](CO)[C@@H](O)[C@H](N)[C@H]1O [AMIKACIN]
Not Active: IC50 [1] | IC50 [2] | Ki [2] | IC50 [3] | Ki [3] | IC50 (B2 bradykinin receptor) | IC50 [4] | IC50 [5] | IC50 (Cytochrome P450 2C19) | Ki (Cytochrome P450 2C19) | IC50 (Caspase-1) | IC50 [6] | IC50 [7] | IC50 [8] | IC50 [9] | Ki [9] | IC50 [10]

CC1(C)S[C@@H]2[C@H](NC(=O)[C@H](N)c3ccc(O)cc3)C(=O)N2[C@H]1C(=O)O [AMOXICILLIN]
Not Active: IC50 [1] | IC50 [2] | Ki [2] | IC50 [3] | Ki [3] | IC50 (B2 bradykinin receptor) | IC50 [4] | IC50 [5] | IC50 (Cytochrome P450 2C19) | Ki (Cytochrome P450 2C19) | IC50 (Caspase-1) | IC50 [6] | IC50 [7] | IC50 [8] | IC50 [9] | Ki [9] | IC50 [10]

CCOC(=O)OC(C)OC1=C(C(=O)Nc2ccccn2)N(C)S(=O)(=O)c2ccccc21 (stereo unspecified) [AMPIROXICAM]
Not Active: IC50 [1] | IC50 [2] | Ki [2] | IC50 [3] | Ki [3] | IC50 (B2 bradykinin receptor) | IC50 [4] | IC50 [5] | IC50 (Cytochrome P450 2C19) | Ki (Cytochrome P450 2C19) | IC50 (Caspase-1) | IC50 [6] | IC50 [7] | IC50 [8] | IC50 [9] | Ki [9] | IC50 [10]

N#C[C@H](O[C@@H]1O[C@H](CO[C@@H]2O[C@H](CO)[C@@H](O)[C@H](O)[C@H]2O)[C@@H](O)[C@H](O)[C@H]1O)c1ccccc1 [AMYGDALIN]
Not Active: IC50 [1] | IC50 [2] | Ki [2] | IC50 [3] | Ki [3] | IC50 (B2 bradykinin receptor) | IC50 [4] | IC50 [5] | IC50 (Cytochrome P450 2C19) | Ki (Cytochrome P450 2C19) | IC50 (Caspase-1) | IC50 [6] | IC50 [7] | IC50 [8] | IC50 [9] | Ki [9] | IC50 [10]

N=C(N)NCCCCNC(=N)N.O=S(=O)(O)O [ARCAINE SULFATE]
Not Active: IC50 [1] | IC50 [2] | Ki [2] | IC50 [3] | Ki [3] | IC50 (B2 bradykinin receptor) | IC50 [4] | IC50 [5] | IC50 (Cytochrome P450 2C19) | Ki (Cytochrome P450 2C19) | IC50 (Caspase-1) | IC50 [6] | IC50 [7] | IC50 [8] | IC50 [9] | Ki [9] | IC50 [10]

C=C1[C@@H]2CCC3[C@@](CC[C@@H]4[C@H](C(=O)O)C[C@@H](O[C@@H]5O[C@H](CO)[C@@H](OS(=O)(=O)[O-])[C@H](OS(=O)(=O)[O-])[C@H]5OC(=O)CC(C)C)C[C@@]34C)(C2)[C@@H]1O.[K+].[K+] (stereo partly specified) [ATRACTYLOSIDE]
Not Active: IC50 [1] | IC50 [2] | Ki [2] | IC50 [3] | Ki [3] | IC50 (B2 bradykinin receptor) | IC50 [4] | IC50 [5] | IC50 (Cytochrome P450 2C19) | Ki (Cytochrome P450 2C19) | IC50 (Caspase-1) | IC50 [6] | IC50 [7] | IC50 [8] | IC50 [9] | Ki [9] | IC50 [10]

CC1(C)S[C@@H]2[C@H](NC(=O)[C@H](NC(=O)N3CCNC3=O)c3ccccc3)C(=O)N2[C@H]1C(=O)O [AZLOCILLIN]
Not Active: IC50 [1] | IC50 [2] | Ki [2] | IC50 [3] | Ki [3] | IC50 (B2 bradykinin receptor) | IC50 [4] | IC50 [5] | IC50 (Cytochrome P450 2C19) | Ki (Cytochrome P450 2C19) | IC50 (Caspase-1) | IC50 [6] | IC50 [7] | IC50 [8] | IC50 [9] | Ki [9] | IC50 [10]

CCOC(=O)c1ccc(N)cc1 [BENZOCAINE]
Not Active: IC50 [1] | IC50 [2] | Ki [2] | IC50 [3] | Ki [3] | IC50 (B2 bradykinin receptor) | IC50 [4] | IC50 [5] | IC50 (Cytochrome P450 2C19) | Ki (Cytochrome P450 2C19) | IC50 (Caspase-1) | IC50 [6] | IC50 [7] | IC50 [8] | IC50 [9] | Ki [9] | IC50 [10]
